Read-outs that look alike come from different tables or passages of the source.
Target: T1, human nAChRα6-α3 chimera, in addition to β2 and β3^V273S subunits (Homo sapiens, UniProt P32297+Q15825)
T1 construct: expressed in transfected cells
Experiment: fluorescence-based calcium assay: inhibition of nicotine stimulated nAChRα6 activity (FLIPR)
Settings: HEK cell line stably expressing the receptor, 10 min pre-incubation, nicotine EC80, 10-point curve, duplicate wells
Procedure, shortened: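 HEK cells stably expressing the human α6-α3 chimera with β2 and β3^V273S were loaded with calcium dye at 30° C. Compounds were pre-incubated for 10 min before nicotine at EC80, and the fluorescence change was read on a FLIPR. Ten-point half-log concentration-response, duplicate wells.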

T1 sequence (Q05901 25-458 V273S): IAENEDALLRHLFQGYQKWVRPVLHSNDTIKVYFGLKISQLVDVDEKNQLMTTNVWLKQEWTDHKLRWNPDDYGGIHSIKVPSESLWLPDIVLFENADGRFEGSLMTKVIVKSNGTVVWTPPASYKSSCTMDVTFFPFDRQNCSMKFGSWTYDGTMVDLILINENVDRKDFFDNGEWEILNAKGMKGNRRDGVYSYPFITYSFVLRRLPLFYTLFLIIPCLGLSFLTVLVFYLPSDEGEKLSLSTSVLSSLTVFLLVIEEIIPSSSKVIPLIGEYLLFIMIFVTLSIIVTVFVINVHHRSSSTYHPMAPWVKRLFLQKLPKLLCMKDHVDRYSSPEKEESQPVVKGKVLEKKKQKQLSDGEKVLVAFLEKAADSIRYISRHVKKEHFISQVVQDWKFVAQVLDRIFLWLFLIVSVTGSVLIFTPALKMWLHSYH
T1 sequence (P17787 26-502, stated change not applied, further chain): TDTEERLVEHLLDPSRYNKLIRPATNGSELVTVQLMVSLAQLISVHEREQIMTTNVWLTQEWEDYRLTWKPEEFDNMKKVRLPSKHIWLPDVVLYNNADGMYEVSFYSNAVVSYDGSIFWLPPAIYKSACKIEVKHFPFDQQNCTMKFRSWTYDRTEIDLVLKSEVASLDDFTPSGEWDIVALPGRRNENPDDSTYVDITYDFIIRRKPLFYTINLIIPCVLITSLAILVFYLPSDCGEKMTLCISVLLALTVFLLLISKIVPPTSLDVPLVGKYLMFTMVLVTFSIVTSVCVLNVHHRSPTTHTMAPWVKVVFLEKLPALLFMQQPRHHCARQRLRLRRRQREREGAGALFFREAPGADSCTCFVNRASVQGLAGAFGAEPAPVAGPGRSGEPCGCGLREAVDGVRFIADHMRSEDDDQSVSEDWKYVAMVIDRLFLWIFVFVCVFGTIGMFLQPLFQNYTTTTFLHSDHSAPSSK
T1 sequence (Q15825+P32297 fused with the stated changes): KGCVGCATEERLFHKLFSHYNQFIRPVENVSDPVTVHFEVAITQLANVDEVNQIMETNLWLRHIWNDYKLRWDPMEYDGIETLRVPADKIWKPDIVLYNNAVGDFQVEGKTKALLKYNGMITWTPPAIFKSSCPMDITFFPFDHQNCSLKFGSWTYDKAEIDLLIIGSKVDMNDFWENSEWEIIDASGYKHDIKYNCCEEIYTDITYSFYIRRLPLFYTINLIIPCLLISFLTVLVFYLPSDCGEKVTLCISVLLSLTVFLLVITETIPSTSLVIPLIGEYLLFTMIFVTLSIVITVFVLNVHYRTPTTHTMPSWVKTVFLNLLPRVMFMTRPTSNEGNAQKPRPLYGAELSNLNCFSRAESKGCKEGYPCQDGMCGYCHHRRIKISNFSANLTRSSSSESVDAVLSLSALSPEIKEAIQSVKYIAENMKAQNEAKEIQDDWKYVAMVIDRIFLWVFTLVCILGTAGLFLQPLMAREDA

| SMILES | IC50 (read-out: IC50) [µM] | IC50 (IC50 (μM)) [µM] |
| --- | --- | --- |
| COc1ccc(F)c(-c2cnc(NCC3CCCN(C)C3)nc2C)c1 (centres unmarked) [Example 34, 5-(2-fluoro-5-methoxyphenyl)-4-methyl-N-((1-methylpiperidin-3-yl)methyl) pyrimidin-2-amine] | 0.13 | – |
| Cc1nc(NC2CCN(C(C)C)CC2)ncc1-c1ccc(OC(F)(F)F)cc1F [Example 88, 5-(2-fluoro-4-(trifluoromethoxy)phenyl)-N-(1-isopropylpiperidin-4-yl)-4-methyl-pyrimidin-2-amine] | 0.149 | – |
| CCN1CCCCC1CNc1ncc(-c2ccc(F)cc2F)c(C)n1 (centres unmarked) [Example 10, 5-(2,4-difluorophenyl)-N-((1-ethylpiperidin-2-yl)methyl)-4-methyl-pyrimidin-2-amine] | – | 0.201 |
| Cc1nc(NC[C@H]2CCCN2)ncc1-c1ccc(F)cc1F [Example 94a, (R)-5-(2,4-difluorophenyl)-4-methyl-N-(pyrrolidin-2-ylmethyl)pyrimidin-2-amine] | 0.005 | – |
| CN(C)C1CCCC(Nc2ncc(-c3ccc(F)cc3)cn2)C1 (centres unmarked) [Example 7, N^1-(5-(4-fluorophenyl)pyrimidin-2-yl)-N^3,N^3-dimethylcyclohexane-1,3-diamine] | 0.59 | – |
| Cc1nc(N[C@H]2CCC[C@H](N)C2)ncc1-c1ccc(C(F)(F)F)cc1F [Example 125, (1S,3S)—N^1-(5-(2-fluoro-4-(trifluoromethyl)phenyl)-4-methyl-pyrimidin-2-yl)cyclohexane-1,3-diamine] | 0.223 | – |
| Cc1nc(NC2CCCN(C)C2)ncc1-c1ccc(F)cc1F (single isomer, unassigned) [Example 77a, 5-(2,4-difluorophenyl)-4-methyl-N-(1-methylpiperidin-3-yl)pyrimidin-2-amine] | 0.07 | – |
| Cc1nc(NC[C@H]2NCC[C@@H]2F)ncc1-c1ccc(C(F)(F)F)cc1F (single isomer, unassigned) [Example 133b, 5-(2-fluoro-4-(trifluoromethyl)phenyl)-N-(((2*R,3*S)-3-fluoropyrrolidin-2-yl)methyl)-4-methyl-pyrimidin-2-amine] | 0.3 | – |
| Cc1nc(N[C@@H]2CCCNC2)ncc1-c1ccc(C(F)(F)F)cc1F [Example 128, (R)-5-(2-fluoro-4-(trifluoromethyl)phenyl)-4-methyl-N-(piperidin-3-yl) pyrimidin-2-amine] | – | 0.18 |
| COc1ccc(-c2nnc(NCC3CCCCN3C)nc2C)c(F)c1 (single isomer, unassigned) [Example 57b, 6-(2-fluoro-4-methoxyphenyl)-5-methyl-N-((1-methylpiperidin-2-yl)methyl)-1,2,4-triazin-3-amine] | 0.144 | – |
| Cc1nc(N[C@H]2CCN(C(C)C)C2)ncc1-c1ccc(C(F)(F)F)cc1F [Example 100, (S)-5-(2-fluoro-4-(trifluoromethyl)phenyl)-N-(1-isopropylpyrrolidin-3-yl)-4-methyl-pyrimidin-2-amine] | 0.11 | – |
| Cc1nc(NC[C@@H]2CCCCN2)ncc1-c1ccc(C(F)(F)F)cc1F [Example 104b, (S)-5-(2-fluoro-4-(trifluoromethyl)phenyl)-4-methyl-N-(2-piperidinylmethyl)pyrimidin-2-amine] | – | 0.045 |
| Cc1nc(NC2CC3(CNC3)C2)ncc1-c1ccc(C(F)(F)F)cc1F [Example 122, N-(5-(2-fluoro-4-(trifluoromethyl)phenyl)-4-methyl-pyrimidin-2-yl)-2-azaspiro[3.3]heptan-6-amine] | 0.039 | – |
| CCN1CCC[C@@H](Nc2ncc(-c3ccc(F)cc3F)c(C)n2)C1 (single isomer, unassigned) [Example 78a] | 0.061 | – |
| Cc1nc(NCCC2CCCN2C)ncc1-c1ccccc1 (centres unmarked) [Example 1, 4-methyl-N-(2-(1-methylpyrrolidin-2-yl)ethyl)-5-phenylpyrimidin-2-amine] | 0.048 | – |
| Cc1nc(NC[C@@H]2CCCN2C)ncc1-c1ccc(C(F)(F)F)cc1F [Example 91b, (S)-5-(2-fluoro-4-(trifluoromethyl)phenyl)-4-methyl-N-((1-methylpyrrolidin-2-yl)methyl)pyrimidin-2-amine] | 0.028 | – |
| Cc1nc(N[C@H]2CC[C@H](N)C2)ncc1-c1ccc(C(F)(F)F)cc1F [Example 111, (1S,3S)—N^3-(5-(2-fluoro-4-(trifluoromethyl)phenyl)-4-methyl-pyrimidin-2-yl)cyclopentane-1,3-diamine] | 0.09 | – |
| Cc1nc(NC(=O)[C@@H]2CCCN2C)ncc1-c1ccc(C(F)(F)F)cc1F [Example 140, (S)—N-(5-(2-fluoro-4-(trifluoromethyl)phenyl)-4-methyl-pyrimidin-2-yl)-1-methylpyrrolidine-2-carboxamide] | 0.079 | – |
| COc1ccc(-c2cnc(NC3CCCC(N(C)C)C3)nc2C#N)c(F)c1 (single isomer, unassigned) [Example 56a, 2-((3-(dimethylamino)cyclohexyl)amino)-5-(2-fluoro-4-methoxyphenyl) pyrimidine-4-carbonitrile] | 0.133 | – |

| SMILES | IC50 (read-out: IC50) [µM] | IC50 (IC50 (μM)) [µM] |
| --- | --- | --- |
| COc1ccc(-c2cnc(NC3CCCC(N(C)C)C3)nc2C#N)c(F)c1 (single isomer, unassigned) [Example 56b, 2-((3-(dimethylamino)cyclohexyl)amino)-5-(2-fluoro-4-methoxyphenyl) pyrimidine-4-carbonitrile] | 0.162 | – |
| Cc1nc(N[C@@H]2CN3CCC2CC3)ncc1-c1ccc(C(F)(F)F)cc1F [Example 120, (S)—N-(5-(2-fluoro-4-(trifluoromethyl)phenyl)-4-methyl-pyrimidin-2-yl) quinuclidin-3-amine] | 0.179 | – |
| Cc1nc(N[C@@H]2CNC[C@H]2O)ncc1-c1ccc(C(F)(F)F)cc1F [Example 115, (3R,4R)-4-((5-(2-fluoro-4-(trifluoromethyl)phenyl)-4-methyl-pyrimidin-2-yl)amino)pyrrolidin-3-ol] | 0.121 | – |
| CN1CCCC(CNc2ncc(-c3ccc(F)cc3)cn2)C1 (centres unmarked) [Example 4, 5-(4-fluorophenyl)-N-((1-methylpiperidin-3-yl)methyl)pyrimidin-2-amine] | 0.211 | – |
| Cc1nc(NC2CCCN(C(C)C)C2)ncc1-c1ccc(F)cc1F (centres unmarked) [Example 72, 5-(2,4-difluorophenyl)-N-(1-isopropylpiperidin-3-yl)-4-methyl-pyrimidin-2-amine] | 0.052 | – |
| COc1ccc(-c2cnc(NCCC3CCCN3C)nc2C#N)c(F)c1 (centres unmarked) [Example 27, 5-(2-fluoro-4-methoxyphenyl)-2-((2-(1-methylpyrrolidin-2-yl)ethyl)amino) pyrimidine-4-carbonitrile] | 0.056 | – |
| COc1ccc(-c2cnc(NCc3cncn3C)nc2C)c(Cl)c1 [Example 63, 5-(2-chloro-4-methoxyphenyl)-4-methyl-N-((1-methyl-1H-imidazol-5-yl)methyl)pyrimidin-2-amine] | 0.141 | – |
| COc1ccc(-c2cnc(NCCC3CCCN3C)nc2C)c(F)c1 (centres unmarked) [Example 16, 5-(2-fluoro-4-methoxyphenyl)-4-methyl-N-(2-(1-methylpyrrolidin-2-yl)ethyl)pyrimidin-2-amine] | 0.075 | – |
| COc1ccc(-c2nnc(NC3CCCN(C)C3)nc2C)c(F)c1 (single isomer, unassigned) [Example 69a, 6-(2-fluoro-4-methoxyphenyl)-5-methyl-N-(1-methylpiperidin-3-yl)-1,2,4-triazin-3-amine] | 0.436 | – |
| COc1ccc(-c2cnc(NCC3CCCN3C)nc2C)c(F)c1 (single isomer, unassigned) [Example 28a, 5-(2-fluoro-4-methoxyphenyl)-4-methyl-N-((1-methylpyrrolidin-2-yl)methyl)pyrimidin-2-amine] | 0.054 | – |
| Cc1nc(NCC2CCCN(C)C2)ncc1-c1ccc(C(F)(F)F)cc1F (centres unmarked) [Example 107, 5-(2-fluoro-4-(trifluoromethyl)phenyl)-4-methyl-N-((1-methyl-3-piperidinyl)methyl)pyrimidin-2-amine] | 0.154 | – |
| Cc1nc(NCC2CCCN2C)nnc1-c1ccc(F)cc1F (single isomer, unassigned) [Example 74a, 6-(2,4-difluorophenyl)-5-methyl-N-((1-methylpyrrolidin-2-yl)methyl)-1,2,4-triazin-3-amine] | 0.693 | – |
| COc1ccc(-c2cnc(NC3CCC(N(C)C)C3)nc2C)c(F)c1 (single isomer, unassigned) [Example 44b, N^1-(5-(2-fluoro-4-methoxyphenyl)-4-methyl-pyrimidin-2-yl)-N^3,N^3-dimethylcyclopentane-1,3-diamine] | 0.088 | – |
| COc1ccc(-c2cnc(NC3CCCOC3)nc2C)c(F)c1 (centres unmarked) [Example 46, 5-(2-fluoro-4-methoxyphenyl)-4-methyl-N-(tetrahydro-2H-pyran-3-yl) pyrimidin-2-amine] | 2.18 | – |
| Cc1nc(NC[C@@H]2CCCN2C)ncc1-c1ccc(F)cc1C(F)(F)F [Example 92b, (S)-5-(4-fluoro-2-(trifluoromethyl)phenyl)-4-methyl-N-((1-methylpyrrolidin-2-yl)methyl)pyrimidin-2-amine] | 0.073 | – |
| Cc1nc(NCC2N(C)CCC2(F)F)ncc1-c1ccc(F)cc1F (single isomer, unassigned) [Example 84a, N-((3,3-difluoro-1-methylpyrrolidin-2-yl)methyl)-5-(2,4-difluorophenyl)-4-methyl-pyrimidin-2-amine] | 1.53 | – |
| Cc1nc(NC2CCCN(CC(F)(F)F)C2)ncc1-c1ccc(F)cc1F (centres unmarked) [Example 60, 5-(2,4-difluorophenyl)-4-methyl-N-(1-(2,2,2-trifluoroethyl)piperidin-3-yl) pyrimidin-2-amine] | 1.18 | – |
| Cc1nc(NCC2CN(C)CCO2)ncc1-c1ccc(C(F)(F)F)cc1F (centres unmarked) [Example 108, 5-(2-fluoro-4-(trifluoromethyl)phenyl)-4-methyl-N-((4-methylmorpholin-2-yl)methyl)pyrimidin-2-amine] | 0.043 | – |
| Cc1nc(NC[C@H]2CC(F)(F)CN2C)ncc1-c1ccc(F)cc1F [Example 80, (R)—N-((4,4-difluoro-1-methylpyrrolidin-2-yl)methyl)-5-(2,4-difluorophenyl)-4-methyl-pyrimidin-2-amine] | 1.47 | – |
